Test results published in the supplement of paper PMC11451515.

Test system: SEM cells
Test: cell viability relative to DMSO control; higher = less cytotoxic
Conditions: 48 h
Method in brief: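 Viability is a per-plate percentage relative to DMSO wells, with cell-free wells as background. CellTiter-Glo One luminescence was read after 48 h at 37°C on 1536-well plates (5 μl) of NOMO1 or SEM (500 cells/well) or P12-Ichikawa (1000 cells/well) leukemia cells. The cells had been adapted for at least four passages in each medium and pin-dosed with library compounds in DMSO from 47 μM to 0.79 nM in 11 threefold steps.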

[1] = HPLM + 10% dialyzed FBS, 0.000781 µM
[2] = HPLM + 10% dialyzed FBS, 0.00234 µM
[3] = HPLM + 10% dialyzed FBS, 0.00702 µM
[4] = HPLM + 10% dialyzed FBS, 0.0211 µM
[5] = HPLM + 10% dialyzed FBS, 0.0632 µM
[6] = HPLM + 10% dialyzed FBS, 0.19 µM
[7] = HPLM + 10% dialyzed FBS, 0.569 µM
[8] = HPLM + 10% dialyzed FBS, 1.71 µM
[9] = HPLM + 10% dialyzed FBS, 5.12 µM
[10] = HPLM + 10% dialyzed FBS, 15.4 µM
[11] = HPLM + 10% dialyzed FBS, 46.1 µM
[12] = RPMI 5 mM glucose + 10% FBS, 0.000781 µM
[13] = RPMI 5 mM glucose + 10% FBS, 0.00234 µM
[14] = RPMI 5 mM glucose + 10% FBS, 0.00702 µM
[15] = RPMI 5 mM glucose + 10% FBS, 0.0211 µM
[16] = RPMI 5 mM glucose + 10% FBS, 0.0632 µM
[17] = RPMI 5 mM glucose + 10% FBS, 0.19 µM
[18] = RPMI 5 mM glucose + 10% FBS, 0.569 µM
[19] = RPMI 5 mM glucose + 10% FBS, 1.71 µM
[20] = RPMI 5 mM glucose + 10% FBS, 5.12 µM
[21] = RPMI 5 mM glucose + 10% FBS, 15.4 µM
[22] = RPMI 5 mM glucose + 10% FBS, 46.1 µM
[23] = RPMI 5 mM glucose + 10% dialyzed FBS, 0.000781 µM
[24] = RPMI 5 mM glucose + 10% dialyzed FBS, 0.00234 µM
[25] = RPMI 5 mM glucose + 10% dialyzed FBS, 0.00702 µM
[26] = RPMI 5 mM glucose + 10% dialyzed FBS, 0.0211 µM
[27] = RPMI 5 mM glucose + 10% dialyzed FBS, 0.0632 µM
[28] = RPMI 5 mM glucose + 10% dialyzed FBS, 0.19 µM
[29] = RPMI 5 mM glucose + 10% dialyzed FBS, 0.569 µM
[30] = RPMI 5 mM glucose + 10% dialyzed FBS, 1.71 µM
[31] = RPMI 5 mM glucose + 10% dialyzed FBS, 5.12 µM
[32] = RPMI 5 mM glucose + 10% dialyzed FBS, 15.4 µM
[33] = RPMI 5 mM glucose + 10% dialyzed FBS, 46.1 µM

Row | Structure (SMILES) | cell viability [1] [%] | cell viability [2] [%] | cell viability [3] [%] | cell viability [4] [%] | cell viability [5] [%] | cell viability [6] [%] | cell viability [7] [%] | cell viability [8] [%] | cell viability [9] [%] | cell viability [10] [%] | cell viability [11] [%] | cell viability [12] [%] | cell viability [13] [%] | cell viability [14] [%] | cell viability [15] [%] | cell viability [16] [%] | cell viability [17] [%] | cell viability [18] [%] | cell viability [19] [%] | cell viability [20] [%] | cell viability [21] [%] | cell viability [22] [%] | cell viability [23] [%] | cell viability [24] [%] | cell viability [25] [%] | cell viability [26] [%] | cell viability [27] [%] | cell viability [28] [%] | cell viability [29] [%] | cell viability [30] [%] | cell viability [31] [%] | cell viability [32] [%] | cell viability [33] [%]
1 | C#C[C@]1(O)CC[C@H]2[C@@H]3CCc4cc(OC)ccc4[C@H]3CC[C@@]21C | 115 | 108 | 114 | 119 | 122 | 114 | 110 | 107 | 40.3 | 111 | 107 | 119 | 114 | 120 | 127 | 126 | 125 | 120 | 130 | 109 | 145 | 109 | 110 | 111 | 113 | 125 | 120 | 110 | 107 | 134 | 106 | 122 | 97.7
2 | CNCC(O)C(O)C(O)C(O)CO.O=C(O)c1ccc(-c2cc3cccnc3c(-c3ccc4nonc4c3)n2)cc1 | 104 | 103 | 99.1 | 115 | 114 | 115 | 114 | 131 | 112 | 92.7 | 92 | 100 | 107 | 109 | 108 | 115 | 108 | 115 | 111 | 103 | 108 | 88.8 | 98 | 97.6 | 120 | 103 | 108 | 101 | 112 | 103 | 127 | 87.6 | 65.8
3 | CN(C)CCCNC(=O)c1ccc(-c2cc(O)c3ncccc3c2)cc1 | 107 | 110 | 112 | 103 | 99.7 | 103 | 104 | 91.6 | 92.6 | 81.9 | 40.2 | 107 | 107 | 109 | 103 | 117 | 112 | 120 | 115 | 104 | 78.2 | 27.1 | 95.5 | 103 | 95.2 | 113 | 95.2 | 100 | 103 | 105 | 93.3 | 74.1 | 33
4 | COc1ccc2c(c1OC)CN1CCc3cc4c(cc3C1C2)OCO4 (stereo not given) | 85.3 | 80.1 | 86.5 | 104 | 87.4 | 64.3 | 72.8 | 41.3 | 13 | 8.04 | 7.89 | 92.5 | 93.6 | 87 | 93.6 | 84.3 | 45.6 | 59.8 | 20.2 | 9.42 | 7.3 | 6.85 | 79.6 | 83.1 | 96.7 | 90.8 | 99 | 55 | 56.5 | 28.8 | 11.3 | 8.19 | 8.01
5 | COC(=O)[C@@H](N)CCCNC(=N)N[N+](=O)[O-] | 82 | 37.9 | 89.1 | 96.1 | 94.3 | 95.1 | 87.2 | 110 | 93.1 | 89.9 | 95.2 | 95.5 | 39.2 | 90.7 | 92.1 | 95.2 | 102 | 90.3 | 101 | 104 | 104 | 101 | 85.1 | 26.2 | 78 | 89.3 | 101 | 84.8 | 99 | 108 | 101 | 107 | 104
6 | O=C(CCc1ccc(O)cc1)c1c(O)cc(O)cc1O[C@@H]1O[C@H](CO)[C@@H](O)[C@H](O)[C@H]1O | 78.3 | 99.9 | 107 | 107 | 100 | 85.8 | 88.2 | 102 | 104 | 93.1 | 81.9 | 80.9 | 93.9 | 98.4 | 97.6 | 79.6 | 94.6 | 89.4 | 78.6 | 93.7 | 92.2 | 83.4 | 61.4 | 102 | 89.6 | 104 | 86.9 | 89.1 | 90.5 | 86.7 | 89.5 | 77.4 | 73.1
7 | CC(C)c1ccccc1Cc1cc(C(=O)Nc2ccc([S+](=O)([O-])c3ccccc3C(C)(C)C)cc2)c(O)c(O)c1O | 104 | 127 | 116 | 106 | 113 | 101 | 109 | 115 | 68.6 | 94.2 | 94.6 | – | – | – | – | – | – | – | – | – | – | – | 129 | 118 | 120 | 105 | 120 | 112 | 138 | 123 | 32.7 | 69.8 | 92.1
8 | CN(C)c1ccc(Nc2nc(N)n(C(=O)c3c(F)cccc3F)n2)cc1 | 105 | 118 | 110 | 92.2 | 111 | 117 | 97.1 | 69 | 43.9 | 64.7 | 56.1 | 108 | 110 | 123 | 96.8 | 118 | 120 | 90.2 | 42.7 | 32.3 | 38 | 48.7 | 102 | 118 | 117 | 76.3 | 142 | 127 | 95.5 | 61.2 | 34.8 | 40.5 | 40.6
9 | OC(COC1=C2C(=O)\C=C(/OC2=CC=C1)C([O-])=O)COC3=C4C(=O)\C=C(/OC4=CC=C3)C([O-])=O | 65.3 | 72.3 | 76 | 73.9 | 77.7 | 43.5 | 80.8 | 88 | 95.9 | 73.1 | 96.8 | 71 | 83.6 | 85.6 | 84.3 | 86.6 | 20.2 | 65.6 | 74.7 | 99.4 | 65.9 | 90.9 | 72.1 | 74.5 | 76.6 | 73.5 | 91.4 | 64 | 82.6 | 95.1 | 102 | 76.9 | 97.7
10 | CCOC1=CC(=CC=C1C/2=N/[C@@](C)(C3=CC=C(Cl)C=C3)[C@](C)(N2C(=O)N4CCN(CC4)CC(=O)N5CCOCC5)C6=CC=C(Cl)C=C6)C(C)(C)C | 82.5 | 107 | 108 | 107 | 117 | 106 | 105 | 93.5 | 81.1 | 66 | 71 | – | – | – | – | – | – | – | – | – | – | – | 112 | 99.8 | 108 | 111 | 107 | 109 | 116 | 109 | 90.2 | 65.2 | 61.4
11 | CN[S+](=O)([O-])CCc1ccc2[nH]cc(C3CCN(C)CC3)c2c1 | 78.4 | 74.3 | 87.2 | 98.7 | 97.7 | 108 | 91.8 | 99.7 | 109 | 111 | 110 | 84 | 67.4 | 90.8 | 101 | 94.1 | 103 | 92.5 | 105 | 110 | 99.7 | 88.8 | 87 | 75.4 | 99.6 | 86.6 | 93.3 | 99.4 | 90.9 | 97 | 84.2 | 92.9 | 85.5
12 | OCCCNc1cc(-c2ccnc(Nc3cccc(Cl)c3)n2)ccn1 | 86.3 | 99.5 | 110 | 108 | 121 | 45.7 | 10.1 | 8.28 | 6.56 | 5.81 | 3.56 | 103 | 125 | 125 | 123 | 143 | 88.2 | 10.4 | 5.66 | 6.14 | 5.72 | 3.94 | 96.2 | 105 | 114 | 113 | 122 | 62.1 | 10.9 | 5.73 | 6.76 | 5.91 | 3.62
13 | Cc1cn(CCN2CCN(c3ccccc3-c3cc(C#N)cc(C(=O)NCCCN4CCCC4)c3)CC2)c2ccccc12 | 103 | 103 | 94.9 | 97.1 | 99.9 | 101 | 112 | 102 | 73.2 | 23.8 | 18.3 | – | – | – | – | – | – | – | – | – | – | – | 104 | 116 | 116 | 101 | 117 | 119 | 128 | 113 | 102 | 42 | 27
14 | Cc1ncc([N+](=O)[O-])n1CCO | 100 | 94 | 104 | 104 | 112 | 105 | 103 | 111 | 118 | 100 | 108 | 104 | 118 | 103 | 111 | 118 | 109 | 109 | 117 | 121 | 105 | 104 | 107 | 109 | 123 | 122 | 114 | 146 | 127 | 115 | 122 | 124 | 130
15 | COc1cc(N[S+](=O)([O-])c2ccc(N)cc2)nc(OC)n1 | 71.9 | 78.4 | 85.6 | 83 | 86.4 | 85.5 | 81.7 | 82.6 | 76.5 | 74.6 | 66.4 | 76.1 | 102 | 90.6 | 83.4 | 102 | 108 | 108 | 96.9 | 84.5 | 111 | 106 | 92.8 | 91.3 | 99.7 | 98.8 | 118 | 101 | 92.7 | 95.3 | 98.9 | 101 | 101
16 | N\C1=N\C2=C(N=C[N]2COC(CO)CO)C(=O)N1 | 103 | 98.8 | 96.8 | 111 | 97 | 104 | 108 | 108 | 104 | 82.4 | 3.99 | 83.9 | 78.2 | 92.2 | 93.2 | 94.9 | 96.3 | 88.2 | 87.4 | 76 | 64.8 | 2.7 | 94.6 | 98.7 | 105 | 108 | 106 | 108 | 113 | 103 | 115 | 94.7 | 4.17
